Reference: BindingDB's records for patent US20250313563 (The Broad Institute, 2025)
pIC50: −log10 of the molar value. Values joined by “and” are separate entries in the source; they are usually repeats but may differ in a detail not shown here. Equal values may be shown once.

Key:
[1] = target: Glycogen synthase kinase-3 alpha (Homo sapiens, UniProt P49840); assay: TR-FRET Assay
In short: (§1)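 TR-FRET readout: streptavidin-d2 (40 nM in added detection mix) plus Tb-anti-pSer641 Ab (2 nM in mix). Steps were 30 min compound preincubation, kinase reaction, then EDTA stop.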

[2] = target: Glycogen synthase kinase-3 beta (Homo sapiens, UniProt P49841); assay: TR-FRET Assay
Sequence of Glycogen synthase kinase-3 beta (P49841 whole entry): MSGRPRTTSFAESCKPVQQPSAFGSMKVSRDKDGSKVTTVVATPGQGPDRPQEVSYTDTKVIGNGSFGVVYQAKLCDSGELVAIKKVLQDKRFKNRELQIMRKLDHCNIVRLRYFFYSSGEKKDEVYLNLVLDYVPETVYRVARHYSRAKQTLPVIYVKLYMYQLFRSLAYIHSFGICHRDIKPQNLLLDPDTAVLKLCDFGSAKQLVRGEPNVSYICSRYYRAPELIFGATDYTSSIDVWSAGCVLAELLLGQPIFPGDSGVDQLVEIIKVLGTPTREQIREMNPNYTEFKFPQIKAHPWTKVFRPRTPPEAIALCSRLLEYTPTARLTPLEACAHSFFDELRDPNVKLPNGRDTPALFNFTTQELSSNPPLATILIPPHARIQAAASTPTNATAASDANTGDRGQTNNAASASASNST
In short: as §1

Sequence of Glycogen synthase kinase-3 alpha (P49840 whole entry): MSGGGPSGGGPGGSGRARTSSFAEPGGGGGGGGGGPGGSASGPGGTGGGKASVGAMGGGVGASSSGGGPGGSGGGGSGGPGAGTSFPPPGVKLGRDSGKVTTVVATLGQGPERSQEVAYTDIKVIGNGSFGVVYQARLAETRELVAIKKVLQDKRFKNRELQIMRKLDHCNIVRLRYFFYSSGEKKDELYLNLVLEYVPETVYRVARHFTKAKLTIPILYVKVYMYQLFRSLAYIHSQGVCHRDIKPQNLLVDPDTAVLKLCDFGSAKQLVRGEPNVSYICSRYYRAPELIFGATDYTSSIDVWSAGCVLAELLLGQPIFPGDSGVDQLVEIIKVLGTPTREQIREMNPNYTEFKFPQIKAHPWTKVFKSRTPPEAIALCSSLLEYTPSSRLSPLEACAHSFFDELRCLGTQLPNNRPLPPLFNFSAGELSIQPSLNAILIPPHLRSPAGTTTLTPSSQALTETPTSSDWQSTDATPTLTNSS

SMILES | pIC50 [1] | pIC50 [2]
CCC1(c2cccc(N(C)c3cc(C)cc(C)n3)c2)C2=CN=NC2NC2=C1C(=O)CC(C)(C)C2 (stereo not drawn) [US20250313563, Compound 943538] | > 7.00 | 6.00 to 7.00
CC1(C)CC(=O)C2=C(C1)NC1N=NC=C1C21CN(c2ccc(C(F)(F)F)cc2)C1 (stereo not drawn) [US20250313563, Compound 945478] | 6.00 to 7.00 | 6.00 to 7.00
CC[C@@]1(c2cccc(C(F)(F)F)c2)C2=C(N=NC2)NC2=C1C(=O)N[C@@H]2C [US20250313563, Compound 945380] | < 5.30 | < 5.30
CC1(C)CC2=C(C(=O)[C@@H]1F)[C@]1(CC[C@H](C(F)(F)F)CC1)C1=CN=NC1N2 (stereo partly drawn) [US20250313563, Compound 918283] | > 7.00 | > 7.00
CC1(C)CC(=O)C2=C(C1)NC1=C(CN=N1)C21CCN(S(=O)(=O)c2ccccc2C(F)F)CC1 [US20250313563, Compound 945657] | > 7.00 and 6.00 to 7.00 | 6.00 to 7.00 and 5.30 to 6.00
CCC1(c2cccc(-c3ccnc(N(C)C)c3)c2)C2=C(CC(C)(C)CC2=O)NC2N=NC(C)=C21 (stereo not drawn) [US20250313563, Compound 883990] | > 7.00 | 6.00 to 7.00
CCC1(c2cccc(-c3c(C)nn(C)c3C)c2)C2=CN=NC2NC2=C1C(=O)CC(C)(C)C2 (stereo not drawn) [US20250313563, Compound 883851] | > 7.00 | > 7.00
CCC1(c2cccc(-c3c(C)nn(C)c3C)c2)C2=C(CC(C)(C)CC2=O)NC2N=NC(C)=C21 (stereo not drawn) [US20250313563, Compound 883995] | > 7.00 | > 7.00
CC[C@]1(c2cccc(Br)c2)C2=CN=NC2NC2=C1C(=O)C[C@H](C)C2 (stereo partly drawn) [US20250313563, Compound 810486] | > 7.00 | 6.00 to 7.00
CCC1(c2cccc(N(C)c3cc(C)ccn3)c2)C2=CN=NC2NC2=C1C(=O)CC(C)(C)C2 (stereo not drawn) [US20250313563, Compound 943537] | > 7.00 | 6.00 to 7.00
CC(C)S(=O)(=O)N1CCC2(CC1)C1=C(N=NC1)NC1=C2C(=O)CC(C)(C)C1 [US20250313563, Compound 913129] | > 7.00 | > 7.00 and 6.00 to 7.00
CC1N=NC2=C1C1(CN(S(=O)(=O)CC3CC3)C1)C1=C(CC(C)(C)CC1=O)N2 (stereo not drawn) [US20250313563, Compound 107828] | > 7.00 | 6.00 to 7.00
CC[C@]1(c2cccc(N3CCCCC3)c2)C2=C(CC(C)(C)CC2=O)NC2N=NC(C)=C21 (stereo partly drawn) [US20250313563, Compound 884115] | 6.00 to 7.00 | 6.00 to 7.00
CC[C@]1(c2cccc(-c3ccncc3CO)c2)C2=CN=NC2NC2=C1C(=O)CC(C)(C)C2 (stereo partly drawn) [US20250313563, Compound 945469] | > 7.00 | > 7.00
C[C@H]1CC(=O)C2=C(C1)NC1=C(CN=N1)[C@]2(C)c1ccccc1 [US20250313563, Compound 789332] | 6.00 to 7.00 | 6.00 to 7.00
CC1N=NC2=C1C1(CCOCC1)C1=C(CC(C)(C)C(F)C1=O)N2 (stereo not drawn) [US20250313563, Compound 912072] | 6.00 to 7.00 | 6.00 to 7.00
CCC1(c2cccc(-c3ccncc3O)c2)C2=C(CC(C)(C)CC2=O)NC2N=NC(C)=C21 (stereo not drawn) [US20250313563, Compound 944024] | > 7.00 | > 7.00
CC[C@@]1(c2cccc(-c3ccnc(C)c3)c2)C2=CN=NC2NC2=C1C(=O)N[C@H](C)C2 (stereo partly drawn) [US20250313563, Compound 926300] | > 7.00 and 6.00 to 7.00 | 6.00 to 7.00 and < 5.30
CC[C@@]1(c2cccc(-c3ccnn3C(C)C)c2)C2=CN=NC2NC2=C1C(=O)CC(C)(C)C2 (stereo partly drawn) [US20250313563, Compound 946091] | > 7.00 | > 7.00
CC1(C)CC(=O)C2=C(C1)NC1=C(CN=N1)[C@@]21CO[C@H](c2ccccc2)C1 [US20250313563, Compound 946072] | > 7.00 | 6.00 to 7.00
CC(C)C1CC(C(=O)N2CC3(C2)CC2(CO3)C3=C(N=NC3)NC3=C2C(=O)CC(C)(C)C3)C1 (stereo not drawn) [US20250313563, Compound 947273] | > 7.00 | > 7.00
CC[C@@]1(c2ccccc2)C2=CN=NC2NC2=C1C(=O)C[C@@H](C)C2 (stereo partly drawn) [US20250313563, Compound 789013] | 6.00 to 7.00 | < 5.30
C[C@@H]1C[C@]2(CCN1S(C)(=O)=O)C1=CN=NC1NC1=C2C(=O)CC(C)(C)C1 (stereo partly drawn) [US20250313563, Compound 918316] | > 7.00 | 6.00 to 7.00
C[C@H]1CC[C@@]2(C1)C1=C(N=NC1)NC1=C2C(=O)CC(C)(C)C1 [US20250313563, Compound 883840] | 6.00 to 7.00 | 6.00 to 7.00
CCC1(c2cccc(-c3ccnc(O)c3)c2)C2=CN=NC2NC2=C1C(=O)CC(C)(C)C2 (stereo not drawn) [US20250313563, Compound 913352] | > 7.00 | > 7.00

The next lines start with the values.

pIC50 [1] | pIC50 [2] | SMILES
< 5.30 | < 5.30 | CC[C@]1(c2cccc(C3=C4CC=C(Cl)C=C4N=CC3)c2)C2=CN=NC2NC2=C1C(=O)NC(C)(C)C2 (stereo partly drawn) [US20250313563, Compound 948362]
> 7.00 | > 7.00 | CC1(C)CC(=O)C2=C(C1)NC1=C(CN=N1)C21CCN(S(=O)(=O)c2cnc3n2CCCC3)CC1 [US20250313563, Compound 947480]
6.00 to 7.00 | 5.30 to 6.00 | CC[C@]1(c2cccc(-c3ccnc4ccc(Cl)cc34)c2)C2=CN=NC2NC2=C1C(=O)NC(C)(C)C2 (stereo partly drawn) [US20250313563, Compound 948530]
> 7.00 | 6.00 to 7.00 | Cn1cc(S(=O)(=O)N2CCC3(CC2)C2=C(N=NC2)NC2=C3C(=O)CC(C)(C)C2)nn1 [US20250313563, Compound 947898]
> 7.00 | > 7.00 | Cc1c(S(=O)(=O)N2CCC3(CC2)C2=C(N=NC2)NC2=C3C(=O)CC(C)(C)C2)cnn1C [US20250313563, Compound 947460]
5.30 to 6.00 | < 5.30 | CC[C@]1(c2cccc(-c3ccnc(N4CCCCC4)c3)c2)C2=CN=NC2NC2=C1C(=O)NC(C)(C)C2 (stereo partly drawn) [US20250313563, Compound 948646]
< 5.30 | < 5.30 | CC[C@@]1(c2cccc(C(F)(F)F)c2)C2=C(CC(C)(C)NC2=O)NC2N=NC(F)=C21 (stereo partly drawn) [US20250313563, Compound 957497]
> 7.00 | 6.00 to 7.00 | CC[C@]1(c2cccc(C(F)(F)F)c2)C2=CN=NC2NC2=C1C(=O)N(c1ccc(C)cc1)CC2 (stereo partly drawn) [US20250313563, Compound 949118]
> 7.00 | 6.00 to 7.00 | CCC1(c2cccc(C(F)(F)F)c2)C2=CN=NC2NC2=C1C(=O)N(c1cccs1)CC2 (stereo not drawn) [US20250313563, Compound 950614]
> 7.00 | > 7.00 and 5.30 to 6.00 | CCC1(c2cccc(-c3cnn(C)c3)c2)C2=C(CC(C)(C)NC2=O)NC2N=NC(C(F)F)=C21 (stereo not drawn) [US20250313563, Compound 949171]
> 7.00 | 6.00 to 7.00 | CCC1(c2cccc(OC)c2)C2=C(CC(C)(C)NC2=O)NC2N=NC(C(F)(F)F)=C21 (stereo not drawn) [US20250313563, Compound 949748]
5.30 to 6.00 | < 5.30 | CC[C@@]1(c2cccc(Cc3ncccc3C(F)(F)F)c2)C2=CN=NC2NC2=C1C(=O)CC(C)(C)C2 (stereo partly drawn) [US20250313563, Compound 947665]
> 7.00 | 6.00 to 7.00 | CC1(C)CC2=C(C(=O)N1)C1(CCN(S(=O)(=O)c3cnn(C(C)(C)C)c3)CC1)C1=C(N=NC1)N2 [US20250313563, Compound 947835]
> 7.00 | 6.00 to 7.00 | CC1(C)CC(=O)C2=C(C1)NC1=C(CN=N1)[C@]21COC2(CN(C(=O)C(F)(F)F)C2)C1 [US20250313563, Compound 948156]
